# Assay results from PubChem BioAssay AID1963981 (Molecular Pharmacology Branch, DTP, NCI, 2024).
# System: 354836-022-R-J1-PDC multicell spheroid viability
# Test: Anticancer human tumor 354836-022-R-J1-PDC patient-derived head and neck squamous cell carcinoma cell line growth inhibition [PI3K]
# Details: for viability, T/C: stronger effect = lower value
# Outline: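 Tumor cells grown as multi-cell spheroids with HUVEC endothelial cells and MSC fibroblast-like stroma were treated with targeted agents combined with inavolisib, alpelisib, duvelisib or copanlisib. Doses fell in half-log steps from near clinical Cmax, else from 10 microM. Viability was measured.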
# [1] = curve of first compound, second compound 0.0316 µM
# [2] = curve of first compound, second compound 0.1 µM
# [3] = curve of first compound, second compound 0.316 µM
# [4] = curve of first compound, second compound 1 µM
# [5] = curve of first compound, second compound 3.16 µM
# [6] = curve of first compound, second compound 10 µM
# [7] = second compound 0.0316 µM, first compound 0.0316 µM
# [8] = second compound 0.0316 µM, first compound 0.1 µM
# [9] = second compound 0.0316 µM, first compound 0.316 µM
# [10] = second compound 0.0316 µM, first compound 1 µM
# [11] = second compound 0.0316 µM, first compound 3.16 µM
# [12] = second compound 0.0316 µM, first compound 10 µM
# [13] = second compound 0.1 µM, first compound 0.0316 µM
# [14] = second compound 0.1 µM, first compound 0.1 µM
# [15] = second compound 0.1 µM, first compound 0.316 µM
# [16] = second compound 0.1 µM, first compound 1 µM
# [17] = second compound 0.1 µM, first compound 3.16 µM
# [18] = second compound 0.1 µM, first compound 10 µM
# [19] = second compound 0.316 µM, first compound 0.0316 µM
# [20] = second compound 0.316 µM, first compound 0.1 µM
# [21] = second compound 0.316 µM, first compound 0.316 µM
# [22] = second compound 0.316 µM, first compound 1 µM
# [23] = second compound 0.316 µM, first compound 3.16 µM
# [24] = second compound 0.316 µM, first compound 10 µM
# [25] = second compound 1 µM, first compound 0.0316 µM
# [26] = second compound 1 µM, first compound 0.1 µM
# [27] = second compound 1 µM, first compound 0.316 µM
# [28] = second compound 1 µM, first compound 1 µM
# [29] = second compound 1 µM, first compound 3.16 µM
# [30] = second compound 1 µM, first compound 10 µM
# [31] = second compound 3.16 µM, first compound 0.0316 µM
# [32] = second compound 3.16 µM, first compound 0.1 µM
# [33] = second compound 3.16 µM, first compound 0.316 µM
# [34] = second compound 3.16 µM, first compound 1 µM
# [35] = second compound 3.16 µM, first compound 3.16 µM
# [36] = second compound 3.16 µM, first compound 10 µM
# [37] = second compound 10 µM, first compound 0.0316 µM
# [38] = second compound 10 µM, first compound 0.1 µM
# [39] = second compound 10 µM, first compound 0.316 µM
# [40] = second compound 10 µM, first compound 1 µM
# [41] = second compound 10 µM, first compound 3.16 µM
# [42] = second compound 10 µM, first compound 10 µM
# [43] = curve of first compound, second compound 0.00316 µM
# [44] = curve of first compound, second compound 0.01 µM
# [45] = second compound 0.00316 µM, first compound 0.0316 µM
# [46] = second compound 0.00316 µM, first compound 0.1 µM
# [47] = second compound 0.00316 µM, first compound 0.316 µM
# [48] = second compound 0.00316 µM, first compound 1 µM
# [49] = second compound 0.00316 µM, first compound 3.16 µM
# [50] = second compound 0.00316 µM, first compound 10 µM
# [51] = second compound 0.01 µM, first compound 0.0316 µM
# [52] = second compound 0.01 µM, first compound 0.1 µM
# [53] = second compound 0.01 µM, first compound 0.316 µM
# [54] = second compound 0.01 µM, first compound 1 µM
# [55] = second compound 0.01 µM, first compound 3.16 µM
# [56] = second compound 0.01 µM, first compound 10 µM
# 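Further: spheroids exposed to agents for seven days before the viability read.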
compound,measurement,setting,value
CCCS(=O)(=O)Nc1ccc(F)c(C(=O)c2c[nH]c3ncc(-c4ccc(Cl)cc4)cc23)c1F + CC(Nc1ncnc2nc[nH]c12)c1cc2cccc(Cl)c2c(=O)n1-c1ccccc1,IC50,[1],5.95 µM
same,IC50,[2],5.79 µM
same,IC50,[3],6.71 µM
same,IC50,[4],5.5 µM
same,IC50,[5],6.29 µM
same,IC50,[6],5.98 µM
same,"viability, T/C",[7],94.8%
same,"viability, T/C",[8],108%
same,"viability, T/C",[9],98.4%
same,"viability, T/C",[10],107%
same,"viability, T/C",[11],88.8%
same,"viability, T/C",[12],17.8%
same,"viability, T/C",[13],99.8%
same,"viability, T/C",[14],99.8%
same,"viability, T/C",[15],109%
same,"viability, T/C",[16],105%
same,"viability, T/C",[17],83.8%
same,"viability, T/C",[18],19.7%
same,"viability, T/C",[19],98%
same,"viability, T/C",[20],106%
same,"viability, T/C",[21],125%
same,"viability, T/C",[22],104%
same,"viability, T/C",[23],110%
same,"viability, T/C",[24],18.9%
same,"viability, T/C",[25],103%
same,"viability, T/C",[26],93.9%
same,"viability, T/C",[27],111%
same,"viability, T/C",[28],94.5%
same,"viability, T/C",[29],81.1%
same,"viability, T/C",[30],16.6%
same,"viability, T/C",[31],114%
same,"viability, T/C",[32],111%
same,"viability, T/C",[33],105%
same,"viability, T/C",[34],106%
same,"viability, T/C",[35],92.9%
same,"viability, T/C",[36],21.1%
same,"viability, T/C",[37],89.7%
same,"viability, T/C",[38],96%
same,"viability, T/C",[39],94.2%
same,"viability, T/C",[40],88.7%
same,"viability, T/C",[41],92.6%
same,"viability, T/C",[42],16%
CC1(C)CCC(CN2CCN(c3ccc(C(=O)NS(=O)(=O)c4ccc(NCC5CCOCC5)c([N+](=O)[O-])c4)c(Oc4cnc5[nH]ccc5c4)c3)CC2)=C(c2ccc(Cl)cc2)C1,"viability, T/C",compound 0.0316 µM,104% [middle of 4 runs]
same,"viability, T/C",compound 0.316 µM,102% [middle of 4 runs]
same,"viability, T/C",compound 1 µM,82.2% [middle of 4 runs]
same,"viability, T/C",compound 3.16 µM,72.4% [middle of 4 runs]
CC(C)NCC(C(=O)N1CCN(c2ncnc3c2C(C)CC3O)CC1)c1ccc(Cl)cc1 (centres undefined) + COc1c(OCCCN2CCOCC2)ccc2c3n(c(=NC(=O)c4cnc(N)nc4)nc12)CCN3,IC50,[43],0.305 µM
same,IC50,[44],0.227 µM
same,IC50,[1],0.119 µM
same,IC50,[2],< 0.0316 µM
same,IC50,[3],< 0.0316 µM
same,IC50,[4],< 0.0316 µM
same,"viability, T/C",[45],90.8%
same,"viability, T/C",[46],68.1%
same,"viability, T/C",[47],52.3%
same,"viability, T/C",[48],28.5%
same,"viability, T/C",[49],9.34%
same,"viability, T/C",[50],2.4%
same,"viability, T/C",[51],87.6%
same,"viability, T/C",[52],66.5%
same,"viability, T/C",[53],42.9%
same,"viability, T/C",[54],24.8%
same,"viability, T/C",[55],9.85%
same,"viability, T/C",[56],2.96%
same,"viability, T/C",[7],68.8%
same,"viability, T/C",[8],52.7%
same,"viability, T/C",[9],34.5%
same,"viability, T/C",[10],19.4%
same,"viability, T/C",[11],7.83%
same,"viability, T/C",[12],2.13%
same,"viability, T/C",[13],43%
same,"viability, T/C",[14],39.6%
same,"viability, T/C",[15],26.3%
same,"viability, T/C",[16],13.3%
same,"viability, T/C",[17],3.65%
same,"viability, T/C",[18],1.29%
same,"viability, T/C",[19],11.6%
same,"viability, T/C",[20],11.2%
same,"viability, T/C",[21],5.73%
same,"viability, T/C",[22],3.46%
same,"viability, T/C",[23],1.76%
same,"viability, T/C",[24],0.91%
same,"viability, T/C",[25],1.35%
same,"viability, T/C",[26],1.54%
same,"viability, T/C",[27],1.33%
same,"viability, T/C",[28],1.12%
same,"viability, T/C",[29],1.14%
same,"viability, T/C",[30],0.88%
CCCS(=O)(=O)Nc1ccc(F)c(C(=O)c2c[nH]c3ncc(-c4ccc(Cl)cc4)cc23)c1F + Cc1nc(NC(=O)N2CCCC2C(N)=O)sc1-c1ccnc(C(C)(C)C(F)(F)F)c1,IC50,[1],6.08 µM
same,IC50,[2],5.56 µM
same,IC50,[3],5.31 µM
same,IC50,[4],4.97 µM
same,IC50,[5],3.43 µM
same,IC50,[6],< 0.0316 µM
same,"viability, T/C",[7],96.5%
same,"viability, T/C",[8],86.5%
same,"viability, T/C",[9],97.5%
same,"viability, T/C",[10],99.8%
same,"viability, T/C",[11],76.6%
same,"viability, T/C",[12],29.8%
same,"viability, T/C",[13],101%
same,"viability, T/C",[14],93.8%
same,"viability, T/C",[15],96.1%
same,"viability, T/C",[16],80.5%
same,"viability, T/C",[17],80.2%
same,"viability, T/C",[18],22.8%
same,"viability, T/C",[19],83.7%
same,"viability, T/C",[20],79.6%
same,"viability, T/C",[21],75.2%
same,"viability, T/C",[22],80%
same,"viability, T/C",[23],75.6%
same,"viability, T/C",[24],18.7%
same,"viability, T/C",[25],80.1%
same,"viability, T/C",[26],76.7%
same,"viability, T/C",[27],72%
same,"viability, T/C",[28],77%
same,"viability, T/C",[29],70.6%
same,"viability, T/C",[30],18%
same,"viability, T/C",[31],53.5%
same,"viability, T/C",[32],60.8%
same,"viability, T/C",[33],63.1%
same,"viability, T/C",[34],66.8%
same,"viability, T/C",[35],50.7%
same,"viability, T/C",[36],11.5%
same,"viability, T/C",[37],39.6%
same,"viability, T/C",[38],35.3%
same,"viability, T/C",[39],35.6%
same,"viability, T/C",[40],39.9%
same,"viability, T/C",[41],32%
same,"viability, T/C",[42],7.04%
CCCS(=O)(=O)Nc1ccc(F)c(C(=O)c2c[nH]c3ncc(-c4ccc(Cl)cc4)cc23)c1F + CC(Nc1ccc2c(c1)OCCn1cc(N3C(=O)OCC3C(F)F)nc1-2)C(N)=O,IC50,[43],6.95 µM
same,IC50,[44],5.96 µM
same,IC50,[1],6.55 µM
same,IC50,[2],5.52 µM
same,IC50,[3],4.22 µM
same,IC50,[4],3.9 µM
same,"viability, T/C",[45],103%
same,"viability, T/C",[46],131%
same,"viability, T/C",[47],107%
same,"viability, T/C",[48],92.7%
same,"viability, T/C",[49],90.5%
same,"viability, T/C",[50],32.7%
same,"viability, T/C",[51],106%
same,"viability, T/C",[52],93.2%
same,"viability, T/C",[53],117%
same,"viability, T/C",[54],90.5%
same,"viability, T/C",[55],78.5%
same,"viability, T/C",[56],27.5%
same,"viability, T/C",[7],95.6%
same,"viability, T/C",[8],111%
same,"viability, T/C",[9],95.2%
same,"viability, T/C",[10],105%
same,"viability, T/C",[11],93%
same,"viability, T/C",[12],24.8%
same,"viability, T/C",[13],85.8%
same,"viability, T/C",[14],73.5%
same,"viability, T/C",[15],81.8%
same,"viability, T/C",[16],86.3%
same,"viability, T/C",[17],79.4%
same,"viability, T/C",[18],18.6%
same,"viability, T/C",[19],69.6%
same,"viability, T/C",[20],68.2%
same,"viability, T/C",[21],78.4%
same,"viability, T/C",[22],84.5%
same,"viability, T/C",[23],61.8%
same,"viability, T/C",[24],15.1%
same,"viability, T/C",[25],54%
same,"viability, T/C",[26],54.1%
same,"viability, T/C",[27],66.1%
same,"viability, T/C",[28],55.5%
same,"viability, T/C",[29],63.4%
same,"viability, T/C",[30],11.1%
C=CC(=O)N1CCN(c2nc(=O)n(-c3c(C)ccnc3C(C)C)c3nc(-c4c(O)cccc4F)c(F)cc23)C(C)C1 (centres undefined),"viability, T/C",compound 0.0316 µM,114% [middle of 4 runs]
same,"viability, T/C",compound 0.1 µM,95.3% [middle of 4 runs]
same,"viability, T/C",compound 0.316 µM,99.3% [middle of 4 runs]
same,"viability, T/C",compound 10 µM,95.1% [middle of 4 runs]
same,IC50,curve of compound,> 10 µM
Cn1nccc1Nc1nccc(-c2ccn(C(CO)c3ccc(Cl)c(F)c3)c(=O)c2)n1 (centres undefined),"viability, T/C",compound 0.0316 µM,107% [middle of 4 runs]
same,"viability, T/C",compound 0.1 µM,91.8% [middle of 4 runs]
same,"viability, T/C",compound 0.316 µM,110% [middle of 4 runs]
same,"viability, T/C",compound 1 µM,94.6% [middle of 4 runs]
same,"viability, T/C",compound 3.16 µM,106% [middle of 4 runs]
same,"viability, T/C",compound 10 µM,96.2% [middle of 4 runs]
same,IC50,curve of compound,> 10 µM
